Test: In vitro permeation of oxytocin solution through NaOH-pretreated skin, Franz-type diffusion cells
Type: in vitro ADME, human
Description: (§1) The volume of receiver solution was 8 ml. […] Eighteen diffusion cells were used in this study. A 2% NaOH aqueous solution (50 μl) was introduced to the donor chambers of nine cells (cells #1 to 9) and a 4% NaOH aqueous solution (50 μl) was introduced to the donor chambers of the other nine cells (cells #10 to 18). Once the NaOH solution is applied, the donor chamber was covered with parafilm.
After 5 hours, the NaOH solution was washed away from the skin for 3 cells (cells #1 to 3) that were treated with 2% NaOH solution and 3 cells (cells #10 to 12) that were treated with 4% NaOH solution. […] After 24 hours, the NaOH solution was washed away from the skin for 3 cells (cells #7 to 9) that were treated with 2% NaOH solution and 3 cells (cells #16 to 18) that were treated with 4% NaOH solution. To wash away the NaOH solution, the receiving fluid was removed and replaced with fresh DI water. This was done twice. DI water was added to the donor chamber to dilute the NaOH solution and then the donor solution was removed. This was repeated several times.
After the NaOH solution was washed away from the skin, the solution in the donor chamber was completely removed and replaced by 50 μl of an oxytocin solution. Once the oxytocin solution is applied, the donor chamber was covered with parafilm.
The cells were filled with DI water as a receiver solution. The DI water had been degased to remove air bubbles. […] The samples taken were analyzed by HPLC for the concentration of oxytocin in the receiver solution. The cumulative amount of oxytocin across human cadaver skin was calculated using the measured oxytocin concentrations in the receiver solutions for each time point, which were listed in Table 46.
as §1, with “0.25%” for “2%”, “A 1.0%” for “a 4%”
After 5 hours, the NaOH solution was washed away from the skin for 3 cells (cells #1 to 3) that were treated with […] and 3 cells (cells #10 to 12) that were treated with 1.0% NaOH solution. After 11 hours, the NaOH solution was washed away from the skin for 3 cells (cells #4 to 6) that were treated with 0.25% NaOH solution and 3 cells (cells #13 to 15) that were treated with 1.0% NaOH solution. After 24 hours, the NaOH solution was washed away from the skin for 3 cells (cells #7 to 9) that were treated with 0.25% NaOH solution and 3 cells (cells #16 to 18) that were treated with 1.0% NaOH solution. To wash away the NaOH solution, the receiving fluid was removed and replaced with fresh DI water. This was done twice. DI water was added to the donor chamber to dilute the NaOH solution and then the donor solution was removed. This was repeated several times until the pH of donor solution was less than 8.
The cells were filled with DI water as a receiver solution. The DI water has been degased to remove air bubbles. […] The cumulative amount of oxytocin across human cadaver skin was calculated using the measured oxytocin concentrations in the receiver solutions for each time point, which were listed in Table 48.

CC[C@H](C)[C@@H]1NC(=O)[C@H](Cc2ccc(O)cc2)NC(=O)[C@@H](N)CSSC[C@@H](C(=O)N2CCC[C@H]2C(=O)N[C@@H](CC(C)C)C(=O)NCC(N)=O)NC(=O)[C@H](CC(N)=O)NC(=O)[C@H](CCC(N)=O)NC1=O [Oxytocin, oxytocin]
Cumulative Amount of Oxytocin Permeated Across Human Cadaver Skin (skin pretreated by 1.0% NaOH for 5 hr, 4.25 hours): 0.45 μg/cm^2
Cumulative Amount of Oxytocin Permeated Across Human Cadaver Skin (skin pretreated by 1.0% NaOH for 5 hr, 24 hours): 0.97 μg/cm^2
Cumulative Amount of Oxytocin Permeated Across Human Cadaver Skin (skin pretreated by 1.0% NaOH for 5 hr, […]): 0.97 μg/cm^2
Cumulative Amount of Oxytocin Permeated Across Human Cadaver Skin (skin pretreated by 1.0% NaOH for 11 hr, 4.25 hours): 53.42 μg/cm^2
Cumulative Amount of Oxytocin Permeated Across Human Cadaver Skin (skin pretreated by 1.0% NaOH for 11 hr, 24 hours): 75.36 μg/cm^2
Cumulative Amount of Oxytocin Permeated Across Human Cadaver Skin (skin pretreated by 1.0% NaOH for 11 hr, […]): 67.97 μg/cm^2
Cumulative Amount of Oxytocin Permeated Across Human Cadaver Skin (skin pretreated by 1.0% NaOH for 24 hr, 4.25 hours): 13.23 μg/cm^2
Cumulative Amount of Oxytocin Permeated Across Human Cadaver Skin (skin pretreated by 1.0% NaOH for 24 hr, 24 hours): 30.97 μg/cm^2
Cumulative Amount of Oxytocin Permeated Across Human Cadaver Skin (skin pretreated by 1.0% NaOH for 24 hr, […]): 21.06 μg/cm^2
Cumulative Amount of Oxytocin Permeated Across Human Cadaver Skin (skin pretreated by 4% NaOH for 5 hr, 5 hours): 118.95 μg/cm^2
Cumulative Amount of Oxytocin Permeated Across Human Cadaver Skin (skin pretreated by 4% NaOH for 5 hr, 15 hours): 200.66 μg/cm^2
Cumulative Amount of Oxytocin Permeated Across Human Cadaver Skin (skin pretreated by 4% NaOH for 5 hr, 24 hours): 225.52 μg/cm^2
Cumulative Amount of Oxytocin Permeated Across Human Cadaver Skin (skin pretreated by 4% NaOH for 15 hr, 5 hours): 202.28 μg/cm^2
Cumulative Amount of Oxytocin Permeated Across Human Cadaver Skin (skin pretreated by 4% NaOH for 15 hr, 15 hours): 222.45 μg/cm^2
Cumulative Amount of Oxytocin Permeated Across Human Cadaver Skin (skin pretreated by 4% NaOH for 15 hr, 24 hours): 231.58 μg/cm^2
Cumulative Amount of Oxytocin Permeated Across Human Cadaver Skin (skin pretreated by 4% NaOH for 24 hr, 5 hours): 193.82 μg/cm^2
Cumulative Amount of Oxytocin Permeated Across Human Cadaver Skin (skin pretreated by 4% NaOH for 24 hr, 15 hours): 232.72 μg/cm^2
Cumulative Amount of Oxytocin Permeated Across Human Cadaver Skin (skin pretreated by 4% NaOH for 24 hr, 24 hours): 236.80 μg/cm^2

Reference: US6586000B2, “Hydroxide-releasing agents as skin permeation enhancers” (Dermatrends, Inc., priority 1999, dated 2003)
